Literature values as cited in patent US20120258202A1, “Compositions and Methods for an Appetite Suppressant and a Nutrient Absorption Blocker with Treatment To Raise Metabolic Rate” (priority 2011, published 2012).

Legend:
[1] = after ORLISTAT was stopped
[2] = laboratory animals
[3] = people taking sibutramine; control 10.0%

In the case of `CNCCC(Oc1ccc(C(F)(F)F)cc1)c1ccccc1` (stereo not drawn) [fluoxetine, Fluoxetine], the “interruption of the treatment due to anxiety, insomnia, and nervousness (each)” value (in vivo) is given as 1-2%, the anorexia (prescribing information, placebo 3%) is given as 10% and the somnolence (prescribing information, placebo 5%) is given as 12%. The anxiety (prescribing information, placebo 6%) was 12%, the nausea (prescribing information, placebo 9%) was 22% and the insomnia (prescribing information, placebo 10%) was 19%.
In the case of `CCCCCCCCCCC[C@@H](C[C@@H]1OC(=O)[C@H]1CCCCCC)OC(=O)[C@H](CC(C)C)NC=O` [orlistat, tetrahydrolipstatin], the “weight regained after drug was stopped, of the weight lost” value [1] is given as “up to 35%”.
For `CN[C@H]1CC[C@@H](c2ccc(Cl)c(Cl)c2)c2ccccc21` [sertraline, Sertraline], the body weight [2] is listed as “resulted in weight loss”.
In the case of `CC(C)CC(N(C)C)C1(c2ccc(Cl)cc2)CCC1` (stereo not drawn) [sibutramine, Sibutramine], the cardiovascular events [3] is given as 11.4%.
